Results as given in patent US9079834B2, “HIV protease inhibitors” (Merck Canada Inc., priority 2010, dated 2015).

Columns and labels:
[1] = test system: HIV-1 replication in T-lymphoid cells; assay: Assay for inhibition of HIV replication (spread assay); type: cell-based; details: 10% FBS
Description: Assays for the inhibition of acute HIV infection of T-lymphoid cells were conducted in accordance with Vacca, J. P. et al., Proc. Natl. Acad. Sci. USA 91: 4096-4100 (1994).

[2] = biological target: wild-type HIV-1 protease (Human immunodeficiency virus type 1 group M subtype B (isolate HXB2) (HIV-1), UniProt P04585); assay: Assay for inhibition of microbial expressed HIV protease; type: biochemical; details: wild-type HIV-1 protease enzyme
Description: The inhibition of WT HIV-1 protease was studied using the reaction of the protease (expressed in Escherichia coli) with a peptide substrate as described in WO 2009/042094. The test compound was first preincubated with the enzyme in assay buffer (50 mM sodium acetate, pH 5.5, 100 mM NaCl, and 0.1% BSA) for 30 minutes at room temperature. Substrate was then added to 400 micromolar in a total volume of 80 microliters containing 10 picomolar HIV-1 protease and the reaction was incubated for 1 hour at 30° C. The reaction was quenched with the addition of 120 microliters of 10% phosphoric acid. The product formation was determined after separation of product and substrate on a ZORBAX® Eclipse XDB-C18 (Agilent Technologies, Palo Alto, Calif.) column connected to an Agilent 1100 high performance liquid chromatography system with fluorescence detection (excitation 270 nanometer and emission 330 nanometer). Alternatively, the inhibitor was preincubated with enzyme and substrate as described above, but in a total volume of 20 microliters containing 20 picomolar HIV-1 protease and the reaction was incubated for 1 hour at 30° C. The reaction was quenched with the addition of 30 microliters of 1 micromolar indinavir (indinavir was also used as an internal standard), and the product formation was determined after separation of product and substrate on a ZORBAX® Eclipse XDB-C18 column connected to an API 4000 mass spectrometer (Applied Biosystems, Carlsbad, Calif.) with multiple reaction monitoring (transitions were 644.5/428.9 and 615.4/422.2 (M1/M3) for product and indinavir respectively). The extent of inhibition of the reaction was determined from the peak area of the products. HPLC of the products, independently synthesized, provided quantitation standards and confirmation of the product composition.

[3] = Human immunodeficiency virus 1, T-lymphoid

SMILES | IC95 [1] | IC50 [2] | IC95 [1, 3]
COC(=O)N[C@H](C(=O)NCC(F)CC[C@@H](CO)N(CCC(C)C)S(=O)(=O)c1ccc(N)cc1)C(c1ccccc1)c1ccccc1 (single isomer, unassigned) [Example 1-1, N-[(2R or S,5S)-5-{[(4-aminophenyl)sulfonyl](3-methylbutyl)amino}-2-fluoro-6-hydroxyhexyl]-Nα-(methoxycarbonyl)-β-phenyl-L-phenylalaninamide] | 42.8 nM | 0.24 nM | –
COC(=O)N[C@H](C(=O)NCC(F)CC[C@@H](CO)N(CCC(C)C)S(=O)(=O)c1ccc(N)cc1)C(c1ccccc1)c1ccccc1 (single isomer, unassigned) [Example 1-2, N-[(2R or S,5S)-5-{[(4-aminophenyl)sulfonyl](3-methylbutyl)amino}-2-fluoro-6-hydroxyhexyl]-Nα-(methoxycarbonyl)-β-phenyl-L-phenylalaninamide] | 19.5 nM | 0.01 nM | –
COC(=O)N[C@H](C(=O)NCC(F)CC[C@@H](CO)N(CCC(C)C)S(=O)(=O)c1ccc(N)cc1)C(c1ccccc1)c1ccccc1 (stereo partly drawn) [Example 1, N-[(5S)-5-{[(4-aminophenyl)sulfonyl](3-methylbutyl)amino}-2-fluoro-6-hydroxyhexyl]-Nα-(methoxycarbonyl)-β-phenyl-L-phenylalaninamide] | – | 0.03 nM | 10.7 nM
CCCCCN([C@H](CO)CCC(F)(F)CNC(=O)[C@@H](NC(=O)OC)C(c1ccccc1)c1ccccc1)S(=O)(=O)c1ccc(CO)cc1 [Example 2] | – | 0.019 nM | 16.3 nM
COC(=O)N[C@H](C(=O)NCC(F)(F)CC[C@@H](CO)N(CC1CC(F)(F)C1)S(=O)(=O)c1ccc2ncsc2c1)C(c1ccccc1)c1ccccc1 [Example 4, N-[(5S)-5-{(1,3-benzothiazol-6-ylsulfonyl)[(3,3-difluorocyclobutyl)methyl]amino}-2,2-difluoro-6-hydroxyhexyl]-Nα-(methoxycarbonyl)-β-phenyl-L-phenylalaninamide] | – | 0.59 nM | 181 nM
COC(=O)N[C@H](C(=O)NCC(F)(F)CC[C@@H](CO)N(Cc1cn[nH]c1)S(=O)(=O)c1ccc2ncsc2c1)C(c1ccccc1)c1ccccc1 [Example 5, N-{(5S)-5-[(1,3-benzothiazol-6-ylsulfonyl)(1H-pyrazol-4-ylmethyl)amino]-2,2-difluoro-6-hydroxyhexyl}-Nα-(methoxycarbonyl)-β-phenyl-L-phenylalaninamide] | – | 0.39 nM | 907 nM
COC(=O)N[C@H](C(=O)NCC(F)(F)CC[C@@H](CO)N(C1CCC(F)(F)CC1)S(=O)(=O)c1ccc2ncsc2c1)C(c1ccccc1)c1ccccc1 [Example 6, N-{(5S)-5-[(1,3-benzothiazol-6-ylsulfonyl)(4,4-difluorocyclohexyl)amino]-2,2-difluoro-6-hydroxyhexyl)-Nα-(methoxycarbonyl)-β-phenyl-L-phenylalaninamide] | – | 2.73 nM | 356 nM
COC(=O)N[C@H](C(=O)NCC(F)(F)CC[C@@H](C(N)=O)N(CC1CC(F)(F)C1)S(=O)(=O)c1ccc2ncsc2c1)C(c1ccccc1)c1ccccc1 [Example 7, N^6-[N-(methoxycarbonyl)-β-phenyl-L-phenylalanyl]-N^2-(1,3-benzothiazol-6-ylsulfonyl)-N^2-[(3,3-difluorocyclobutyl)methyl]-5,5-difluoro-L-lysinamide] | – | 0.43 nM | 200 nM
COC(=O)N[C@H](C(=O)NCCC(F)(F)C[C@@H](CO)N(C(C)C)S(=O)(=O)c1ccc(N)cc1)C(c1ccccc1)c1ccccc1 [Example 8, N-[(5S)-5-{[(4-aminophenyl)sulfonyl](propan-2-yl)amino}-3,3-difluoro-6-hydroxyhexyl]-Nα-(methoxycarbonyl)-β-phenyl-L-phenylalaninamide] | – | 6.07 nM | 299 nM
COC(=O)N[C@H](C(=O)NCCC(F)(F)C[C@@H](CO)N(CC1CC(F)(F)C1)S(=O)(=O)c1ccc2ncsc2c1)C(c1ccccc1)c1ccccc1 [Example 9, N-[(5S)-5-{(1,3-benzothiazol-6-ylsulfonyl)[(3,3-difluorocyclobutyl)methyl]amino}-3,3-difluoro-6-hydroxyhexyl]-Nα-(methoxycarbonyl)-β-phenyl-L-phenylalaninamide] | – | 5.62 nM | 105 nM
COC(=O)N[C@H](C(=O)NCCC(F)C[C@@H](CO)N(C(C)C)S(=O)(=O)c1ccc(N)cc1)C(c1ccccc1)c1ccccc1 (stereo partly drawn) [Example 10, N-[(5S)-5-{[(4-aminophenyl)sulfonyl](propan-2-yl)amino}-3-fluoro-6-hydroxyhexyl]-Nα-(methoxycarbonyl)-β-phenyl-L-phenylalaninamide] | – | 3.9 nM | 246 nM
